In experiment [1] the target is Tubulin (Bos taurus) (UniProt Q6B856+Q862L2+Q862F3). The experiment is described as follows: Concentration which causes polymerization of 50% of the tubulin present in 15 min at 37 degree C was tested in vitro relative to paclitaxel (1). In kind it is functional.
In experiment [2] the test system is B16. The experiment is described as follows: Concentration which produces 50% inhibition of proliferation of B16 melanoma cytotoxic cells after 40h of incubation was tested in vitro relative to paclitaxel (1). In kind it is functional, Mus musculus.

Take `CC(=O)O[C@H]1C(=O)[C@]2(C)[C@@H](O)CC3OC[C@@]3(OC(C)=O)[C@H]2[C@H](OC(=O)c2cccn2C)[C@]2(O)C[C@H](OC(=O)[C@H](O)[C@@H](NC(=O)c3ccccc3)c3ccccc3)C(C)=C1C2(C)C` (stereo partly drawn): the Ratio in experiment [1] and in experiment [2] was 2.6 each time.

Turning to `CC(=O)O[C@H]1C(=O)[C@]2(C)[C@@H](O)CC3OC[C@@]3(OC(C)=O)[C@H]2[C@H](OC(=O)c2ccncc2)[C@]2(O)C[C@H](OC(=O)[C@H](O)[C@@H](NC(=O)c3ccccc3)c3ccccc3)C(C)=C1C2(C)C` (stereo partly drawn), the results for the Ratio in experiment [1] and in experiment [2] were 7.3 and above 36, respectively.

Consider `CC(=O)O[C@H]1C(=O)[C@@]2(C)[C@H]([C@H](OC(=O)c3ccccc3)[C@]3(O)C[C@H](OC(=O)[C@H](O)[C@@H](NC(=O)c4ccccc4)c4ccccc4)C(C)=C1C3(C)C)[C@]1(OC(C)=O)CO[C@@H]1C[C@@H]2O` [PACLITAXEL], for which the Ratio in experiment [1] and in experiment [2] was 1 each time.

In the case of `CC(=O)O[C@H]1C(=O)[C@]2(C)[C@@H](O)CC3OC[C@@]3(OC(C)=O)[C@H]2[C@H](OC(=O)c2cccs2)[C@]2(O)C[C@H](OC(=O)[C@H](O)[C@@H](NC(=O)c3ccccc3)c3ccccc3)C(C)=C1C2(C)C` (stereo partly drawn), the Ratio is 1.1 in experiment [1] and 3.8 in experiment [2].

Take `CC(=O)O[C@H]1C(=O)[C@]2(C)[C@@H](O)CC3OC[C@@]3(OC(C)=O)[C@H]2[C@H](OC(=O)c2ccco2)[C@]2(O)C[C@H](OC(=O)[C@H](O)[C@@H](NC(=O)c3ccccc3)c3ccccc3)C(C)=C1C2(C)C` (stereo partly drawn): the Ratio came out at 2.4 in experiment [1] and 14 in experiment [2].

In the case of `CC(=O)O[C@H]1C(=O)[C@]2(C)[C@@H](O)CC3OC[C@@]3(OC(C)=O)[C@H]2[C@H](OC(=O)c2cccnc2)[C@]2(O)C[C@H](OC(=O)[C@H](O)[C@@H](NC(=O)c3ccccc3)c3ccccc3)C(C)=C1C2(C)C` (stereo partly drawn), the Ratio in experiment [1] is 4; in experiment [2] it was above 36.

In the case of `CC(=O)O[C@H]1C(=O)[C@]2(C)[C@@H](O)CC3OC[C@@]3(OC(C)=O)[C@H]2[C@H](OC(=O)c2ccsc2)[C@]2(O)C[C@H](OC(=O)[C@H](O)[C@@H](NC(=O)c3ccccc3)c3ccccc3)C(C)=C1C2(C)C` (stereo partly drawn), the Ratio in experiment [1] was determined as 1.4; in experiment [2] it was 2.1.

With `CC(=O)O[C@H]1C(=O)[C@]2(C)[C@@H](O)CC3OC[C@@]3(OC(C)=O)[C@H]2[C@H](OC(=O)c2ccccn2)[C@]2(O)C[C@H](OC(=O)[C@H](O)[C@@H](NC(=O)c3ccccc3)c3ccccc3)C(C)=C1C2(C)C` (stereo partly drawn), the figures for the Ratio in experiment [1] and in experiment [2] were 2.8 and 8.7, respectively.

In the case of `CC(=O)O[C@H]1C(=O)[C@]2(C)[C@@H](O)CC3OC[C@@]3(OC(C)=O)[C@H]2[C@H](OC(=O)c2ccoc2)[C@]2(O)C[C@H](OC(=O)[C@H](O)[C@@H](NC(=O)c3ccccc3)c3ccccc3)C(C)=C1C2(C)C` (stereo partly drawn), the Ratio in experiment [1] is 2.1; in experiment [2], 8.2.

(Values after ChEMBL document CHEMBL1150456, “Synthesis of 2-O-heteroaroyl taxanes: evaluation of microtubule assembly promotion and cytotoxicity” (1995).)
